Source: US20150105252A1, “SUBSTITUTED PYRAZOLES AS HERBICIDES” (E I DU PONT DE NEMOURS AND COMPANY, priority 2013, published 2015)

Tests used:
morningglory = experiment: Test C preemergence; type: in vivo, Ipomoea coccinea; details: preemergence; for Plant response rating, Morningglory: 125 g ai/ha, scale 0 to 100, 0 = no effect, 100 = complete control
How it was run: (§1)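 Pre- and postemergence greenhouse screen; vehicle was a non-phytotoxic solvent mix with surfactant. Preemergence: treatment applied right after sowing into loam and sand. Postemergence: treated at 1–4 leaves. Visual rating at 13–15 days, 100 = complete control.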

soybean = experiment: Test C postemergence; type: in vivo, Glycine max; details: postemergence; for Plant response rating, Soybean: 250 g ai/ha, scale 0 to 100 (0 no effect, 100 complete control); for Soybean plant response rating: 125 g ai/ha, scale 0 to 100, 0 no effect, 100 complete control
How it was run: as §1

kochia = experiment: Test C postemergence; type: in vivo, Kochia scoparia; details: for Plant response rating (scale of 0 to 100 where 0 is no effect and 100 is complete control), Kochia: Postemergence, 31 g ai/ha, visually evaluated after 13 to 15 days; for Kochia plant response rating / Plant response rating, Kochia: postemergence; for Kochia plant response rating: 62 g ai/ha, scale 0 to 100
How it was run: as §1

rice = experiment: Test B flood; type: in vivo, Oryza sativa; details: 250 g ai/ha, visual rating on 0 to 100 scale (0 no effect, 100 complete control), 13 to 15 days
How it was run: (§2)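 2-leaf plants; pots flooded 3 cm over soil; compound added to paddy water, depth kept constant. Greenhouse 13–15 d. Visual rating vs controls, 0–100 scale (100 = complete control); dash = no result.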

ducksalad = experiment: Test B flood; type: in vivo, Heteranthera limosa; details: 250 g ai/ha, visual rating on 0 to 100 scale (0 no effect, 100 complete control), 13 to 15 days
How it was run: as §2

nutsedge, yellow [1] = experiment: Test C postemergence; type: in vivo, Cyperus esculentus; details: for Plant response rating (scale of 0 to 100 where 0 is no effect and 100 is complete control), Nutsedge, Yellow: Postemergence, 31 g ai/ha, visually evaluated after 13 to 15 days; for Nutsedge, Yellow plant response rating / Plant response rating, Nutsedge, Yellow: postemergence; for Nutsedge, Yellow plant response rating: 62 g ai/ha, scale 0 to 100
How it was run: as §1

crabgrass, large = experiment: Test A postemergence; type: in vivo, Digitaria sanguinalis
How it was run: (§3)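 Growth medium: loam soil blended with sand. Preemergence treatment used a directed soil spray right after planting; postemergence treatment targeted seedlings at one to two leaves (2–10 cm height). Response was judged by eye relative to untreated plants about 10 days later on a 0–100 control scale.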

waterhemp = experiment: Test C preemergence; type: in vivo, Amaranthus rudis; details: preemergence; for Plant response rating, Waterhemp: 125 g ai/ha, scale 0 to 100, 0 = no effect, 100 = complete control
How it was run: as §1

velvetleaf = experiment: Test C preemergence; type: in vivo, Abutilon theophrasti; details: preemergence; for Plant response rating, Velvetleaf: 125 g ai/ha, scale 0 to 100, 0 = no effect, 100 = complete control
How it was run: as §1

barnyardgrass = experiment: Test A preemergence; type: in vivo, Echinochloa crus-galli; details: preemergence; for Barnyardgrass plant response rating (0 to 100 scale, 0 is no effect, 100 is complete control): 125 g ai/ha, visual injury approx. 10 days after treatment; for Barnyardgrass plant response rating: 500 g ai/ha, visual injury after approx. 10 days, 0 to 100 scale (0 no effect, 100 complete control)
How it was run: as §3

nutsedge, yellow [2] = experiment: Test C preemergence; type: in vivo, Cyperus esculentus; details: preemergence; for Plant response rating, Nutsedge, Yellow: 125 g ai/ha, scale 0 to 100, 0 = no effect, 100 = complete control
How it was run: as §1

johnsongrass = experiment: Test C postemergence; type: in vivo, Sorghum halepense; details: for Plant response rating (scale of 0 to 100 where 0 is no effect and 100 is complete control), Johnsongrass: Postemergence, 31 g ai/ha, visually evaluated after 13 to 15 days; for Johnsongrass plant response rating / Plant response rating, Johnsongrass: postemergence; for Johnsongrass plant response rating: 62 g ai/ha, scale 0 to 100
How it was run: as §1

[3] = 31 g ai/ha, visual rating, scale 0 to 100 (0 no effect, 100 complete control), 13 to 15 days
[4] = 62 g ai/ha, scale 0 to 100 (0 no effect, 100 complete control), 13 to 15 days
[5] = 250 g ai/ha, scale 0 to 100, 0 is no effect, 100 is complete control
[6] = 250 g ai/ha, scale 0 to 100 (0 no effect, 100 complete control)
[7] = 125 g ai/ha, scale 0 to 100, 0 no effect, 100 complete control
[8] = Postemergence, 500 g ai/ha, 0 to 100 scale (0 no effect, 100 complete control)
[9] = postemergence, 125 g ai/ha, about 10 days, visual rating on 0 to 100 scale (0 no effect, 100 complete control)

SMILES | Morningglory plant response rating (morningglory; [3]) | Morningglory plant response rating (morningglory; [4]) | Plant response rating, Morningglory (morningglory; 13 to 15 days) | Morningglory plant response rating (morningglory; [5]) | Plant response rating, Soybean (soybean) | Soybean plant response rating (soybean) | Plant response rating (scale of 0 to 100 where 0 is no effect and 100 is complete control), Kochia (kochia) | Kochia plant response rating (kochia) | Plant response rating, Kochia (kochia; [6]) | Plant response rating, Kochia (kochia; [7]) | Plant response rating, Rice (rice) | Plant response rating, Ducksalad (ducksalad) | Plant response rating (scale of 0 to 100 where 0 is no effect and 100 is complete control), Nutsedge, Yellow (nutsedge, yellow [1]) | Nutsedge, Yellow plant response rating (nutsedge, yellow [1]) | Plant response rating, Nutsedge, Yellow (nutsedge, yellow [1]; [6]) | Plant response rating, Nutsedge, Yellow (nutsedge, yellow [1]; [7]) | Crabgrass, Large plant response rating (crabgrass, large; [8]) | Crabgrass, Large plant response rating (crabgrass, large; [9]) | Waterhemp plant response rating (waterhemp; [3]) | Waterhemp plant response rating (waterhemp; [4]) | also measured
CCCc1cc(C(=O)NC(C)C)nn1Cc1cc(C(F)(F)F)nn1C [Compound 201] | 85 | 100 | 100 | 100 | 98 | 95 | 85 | 85 | 90 | 90 | 45 | 95 | 10 | 10 | 10 | 5 | 100 | 90 | 100 | 100 | Plant response rating, Waterhemp (waterhemp; 13 to 15 days): 98; Waterhemp plant response rating (waterhemp; [5]): 98; Velvetleaf plant response rating (velvetleaf; [3]): 90; Velvetleaf plant response rating (velvetleaf; [4]): 100; Plant response rating, Velvetleaf (velvetleaf; 13 to 15 days): 100; Velvetleaf plant response rating (velvetleaf; [5]): 100; Barnyardgrass plant response rating (0 to 100 scale, 0 is no effect, 100 is complete control) (barnyardgrass): 100; Barnyardgrass plant response rating (barnyardgrass): 100; Nutsedge, Yellow plant response rating (nutsedge, yellow [2]; [3]): 5; Nutsedge, Yellow plant response rating (nutsedge, yellow [2]; [4]): 20; Plant response rating, Nutsedge, Yellow (nutsedge, yellow [2]; 13 to 15 days): 55; Nutsedge, Yellow plant response rating (nutsedge, yellow [2]; [5]): 80; Plant response rating (scale of 0 to 100 where 0 is no effect and 100 is complete control), Johnsongrass (johnsongrass): 5; Johnsongrass plant response rating (johnsongrass): 5; Plant response rating, Johnsongrass (johnsongrass; [6]): 85; Plant response rating, Johnsongrass (johnsongrass; [7]): 30
CCCc1cc(C(=O)NC2CC2)nn1Cc1cc(C(F)(F)F)nn1C [Compound 202] | 90 | 100 | 100 | 100 | 98 | 98 | 85 | 90 | 90 | 90 | 30 | 95 | 0 | 5 | 20 | 10 | 100 | 90 | 100 | 100 | Plant response rating, Waterhemp (waterhemp; 13 to 15 days): 100; Waterhemp plant response rating (waterhemp; [5]): 100; Velvetleaf plant response rating (velvetleaf; [3]): 60; Velvetleaf plant response rating (velvetleaf; [4]): 100; Plant response rating, Velvetleaf (velvetleaf; 13 to 15 days): 100; Velvetleaf plant response rating (velvetleaf; [5]): 100; Barnyardgrass plant response rating (0 to 100 scale, 0 is no effect, 100 is complete control) (barnyardgrass): 90; Barnyardgrass plant response rating (barnyardgrass): 100; Nutsedge, Yellow plant response rating (nutsedge, yellow [2]; [3]): 0; Nutsedge, Yellow plant response rating (nutsedge, yellow [2]; [4]): 5; Plant response rating, Nutsedge, Yellow (nutsedge, yellow [2]; 13 to 15 days): 30; Nutsedge, Yellow plant response rating (nutsedge, yellow [2]; [5]): 50; Plant response rating (scale of 0 to 100 where 0 is no effect and 100 is complete control), Johnsongrass (johnsongrass): 0; Johnsongrass plant response rating (johnsongrass): 5; Plant response rating, Johnsongrass (johnsongrass; [6]): 25; Plant response rating, Johnsongrass (johnsongrass; [7]): 5
